Measured values from ChEMBL document CHEMBL4428037 (J Med Chem, 2016).
Calls of active or inactive are those of the source. The calls are words filed in the database; no cut-off is given here.

Legend:
A549 [1] = assay: Induction of apoptosis in human A549 cells assessed as late apoptotic cells level at 10 nM incubated for 24 hrs by Annexin V-FITC/PI staining based FACS flow cytometry (reference value: 2.15%); format: functional
A549 [2] = assay: Induction of apoptosis in human A549 cells assessed as induction of cell shrinkage at 40 nM incubated for 24 hrs microscopy; format: functional, cell-based
A549 [3] = assay: Induction of apoptosis in human A549 cells assessed as early apoptotic cells level at 40 nM incubated for 24 hrs by Annexin V-FITC/PI staining based FACS flow cytometry (reference value: 0.65%); format: functional
A549 [4] = assay: Inhibition of colony formation in human A549 cells at 10 nM incubated for 9 days by crystal violet staining based assay; format: functional; settings: A549, 216 h
A549 [5] = assay: Reduction in p-cdc2 expression in human A549 cells incubated for 24 hrs by Western blotting; format: functional, cell-based
MCF7 = assay: cells; settings: Homo sapiens, MCF7, 72 h
A549 [6] = assay: Induction of apoptosis in human A549 cells assessed as necrotic cells level at 20 nM incubated for 24 hrs by Annexin V-FITC/PI staining based FACS flow cytometry (reference value: 0.37%); format: functional
[7] = Toxicity in human NSCLC xenografted Balb/c-nu mouse assessed as induction of adverse effects at 12.5 mg/kg, ip dosed every day for 21 consecutive days; format: organism-based; settings: in vivo
A549 [8] = assay: Cytotoxicity against human A549 cells assessed as reduction in cell viability at 5 nM to 80 nM incubated for 24 hrs by trypan blue staining assay; format: cell-based; settings: a549, 24 h, 0.005 µM
A549 [9] = assay: Induction of cell cycle arrest in human A549 cells assessed as accumulation at G2/M phase at 40 nM incubated for 24 hrs by propidium iodide staining based FACS flow cytometry; format: functional
A549 [10] = assay: Induction of apoptosis in human A549 cells assessed as live cells level at 10 nM incubated for 24 hrs by Annexin V-FITC/PI staining based FACS flow cytometry (reference value: 96.83%); format: functional
[11] = test system: Non-small cell lung cancer cell line; assay: Antitumor activity against human NSCLC xenografted in Balb/c-nu mouse assessed as inhibition of tumor growth at 50 mg/kg, ip dosed every day for 21 consecutive days and measured every 3 days; format: functional; settings: 72 h, read-out: TGI
A549 [12] = assay: Induction of apoptosis in human A549 cells assessed as early apoptotic cells level at 10 nM incubated for 24 hrs by Annexin V-FITC/PI staining based FACS flow cytometry (reference value: 0.65%); format: functional
A549 [13] = assay: Induction of apoptosis in human A549 cells assessed as early apoptotic cells level at 20 nM incubated for 24 hrs by Annexin V-FITC/PI staining based FACS flow cytometry (reference value: 0.65%); format: functional
A549 [14] = assay: Induction of cell cycle arrest in human A549 cells assessed as accumulation at G2/M phase incubated for 24 hrs by propidium iodide staining based FACS flow cytometry; format: functional
A549 [15] = assay: Induction of apoptosis in human A549 cells assessed as late apoptotic cells level at 20 nM incubated for 24 hrs by Annexin V-FITC/PI staining based FACS flow cytometry (reference value: 2.15%); format: functional
HUVEC [16] = assay: Toxicity in HUVEC assessed as effect on cell proliferation at 10 to 40 nM incubated for 8 hrs; format: cell-based; settings: human, 0.04 µM
A549 [17] = assay: Induction of apoptosis in human A549 cells assessed as induction of nucleus fragmentation at 40 nM incubated for 24 hrs microscopy; format: functional, cell-based
A549 [18] = assay: Growth inhibition of human A549 cells incubated for 48 hrs by MTT assay; format: functional, cell-based; settings: A549, 48 h
HUVEC [19] = assay: Inhibition of capillary tube formation in HUVEC assessed as reduction in tube-like structures formation incubated for 8 hrs by fluorescence microscopy based 3D-matrigel assay; format: functional, cell-based; settings: Homo sapiens
HUVEC [20] = assay: Inhibition of capillary tube formation in HUVEC assessed as reduction in tube-like structures formation at 40 nM incubated for 8 hrs by fluorescence microscopy based 3D-matrigel assay; format: functional; settings: Homo sapiens
NCI-H460 [21] = assay: Inhibition of colony formation in human NCI-H460 cells at 10 nM incubated for 9 days by crystal violet staining based assay; format: functional; settings: NCI-H460, 216 h
A549 [22] = assay: Inhibition of colony formation in human A549 cells incubated for 9 days by crystal violet staining based assay; format: functional, cell-based
[23] = test system: Non-small cell lung cancer cell line; assay: Antitumor activity against human NSCLC xenografted in Balb/c-nu mouse assessed as induction of delay in tumor volume increase at 12.5 mg/kg, ip dosed every day for 21 consecutive days and measured every 3 days; format: functional, organism-based
Tubulin (Sus scrofa) [24] = molecular target: T1, Tubulin (Sus scrofa) (UniProt P02554+P02550); assay: Displacement of [3H]colchicine from biotinylated porcine tubulin at 5 uM incubated for 2 hrs by competition scintillation proximity; format: protein assay
[25] = molecular target: T2, Tubulin alpha (Homo sapiens) (UniProt P0DPH7+P68366+Q71U36+P68363+Q9BQE3+Q6PEY2+A6NHL2+Q9NY65); assay: Inhibition of alpha tubulin polymerization in human A549 cells assessed as induction of microtubule network dis-organization at 40 nM by Immunofluorescent staining based fluorescence microscopy; format: cell-based
A549 [26] = assay: Induction of apoptosis in human A549 cells assessed as increase in cleaved caspase-3 level incubated for 24 hrs by Western blotting; format: functional, cell-based
HepG2 = assay: Growth inhibition of human HepG2 cells incubated for 72 hrs by MTT assay; format: functional, cell-based; settings: HepG2, 72 h
[27] = Toxicity in human NSCLC xenografted Balb/c-nu mouse assessed as induction of adverse effects at 50 mg/kg, ip dosed every day for 21 consecutive days; format: organism-based; settings: in vivo
[28] = molecular target: T2, Tubulin alpha (Homo sapiens); assay: Inhibition of alpha tubulin polymerization in human A549 cells assessed as induction of cell border shrinkage of microtubules at 40 nM by Immunofluorescent staining based fluorescence microscopy
Tubulin (Sus scrofa) [29] = molecular target: T1, Tubulin (Sus scrofa); assay: (§1) Inhibition of porcine brain tubulin polymerization incubated for 60 mins by fluorescence-based assay
Tubulin = Tubulin (Sus scrofa, UniProt P02554+P02550); assay: as §1
A549 [30] = assay: Induction of apoptosis in human A549 cells assessed as live cells level at 20 nM incubated for 24 hrs by Annexin V-FITC/PI staining based FACS flow cytometry (reference value: 96.83%); format: functional
A549 [31] = assay: Induction of apoptosis in human A549 cells assessed as necrotic cells level at 40 nM incubated for 24 hrs by Annexin V-FITC/PI staining based FACS flow cytometry (reference value: 0.37%); format: functional
HUVEC [32] = assay: Inhibition of capillary tube formation in HUVEC assessed as reduction in tube-like structures formation at 20 nM incubated for 8 hrs by fluorescence microscopy based 3D-matrigel assay; format: functional; settings: Homo sapiens
A549 [33] = assay: Induction of apoptosis in human A549 cells assessed as induction of chromatin condensation at 40 nM incubated for 24 hrs microscopy; format: functional, cell-based
HeLa = assay: Growth inhibition of human HeLa cells incubated for 72 hrs by MTT assay; format: functional, cell-based
NCI-H460 [34] = assay: Inhibition of colony formation in human NCI-H460 cells incubated for 9 days by crystal violet staining based assay; format: functional, cell-based
HUVEC [35] = assay: Inhibition of capillary tube formation in HUVEC assessed as reduction in tube-like structures formation at 10 nM incubated for 8 hrs by fluorescence microscopy based 3D-matrigel assay; format: functional; settings: Homo sapiens

CCOc1cccc(Nc2nn(C)c3c2Cc2cc(OCC)c(OCC(N)=O)cc2-3)c1
Activity (A549 [1]): 2.7%
Activity (A549 [2]): Active
Activity (A549 [3]): 9.06%
inhibition at 0.01 µM (A549 [4]): 91%
Activity (A549 [5]): Dose-dependent effect
IC50 (MCF7): 32.3 nM
Activity (A549 [6]): 0.84%
Activity [7]: Non-Toxic
Activity (A549 [8]): Non-Toxic
Activity (A549 [9]): 68.1%
Activity (A549 [10]): 95.66%
inhibition in vivo at 50 mg/kg [11]: 59.1%
Activity (A549 [12]): 1.01%
Activity (A549 [13]): 3.78%
Activity (A549 [14]): Dose-dependent effect
Activity (A549 [15]): 4.57%
Activity (HUVEC [16]): Non-Toxic
Activity (A549 [17]): Active
IC50 (A549 [18]): 41.5 nM
inhibition (HUVEC [19]): Dose-dependent effect
inhibition at 0.04 µM (HUVEC [20]): 69%
inhibition at 0.01 µM (NCI-H460 [21]): 97.3%
inhibition (A549 [22]): Dose-dependent effect
Activity [23]: Active
inhibition (Tubulin (Sus scrofa) [24]): 67%
inhibition [25]: Active
Activity (A549 [26]): Dose-dependent effect
IC50 (HepG2): 26 nM
Activity [27]: Non-Toxic
inhibition [28]: Active
inhibition (Tubulin (Sus scrofa) [29]): Dose-dependent effect
IC50 (Tubulin): 4620 nM
Activity (A549 [30]): 90.81%
Activity (A549 [31]): 1.23%
inhibition at 0.02 µM (HUVEC [32]): 58%
Activity (A549 [33]): Active
IC50 (HeLa): 7.4 nM
inhibition (NCI-H460 [34]): Dose-dependent effect
inhibition at 0.01 µM (HUVEC [35]): 39%
